Patent US10550101B2, “Crystalline forms of mesylate salt of pyridinyl amino pyrimidine derivative, preparation methods therefor, and applications thereof” (SHANGHAI ALLIST PHARMACEUTICAL AND MEDICAL TECHNOLOGY …, priority 2016, dated 2020)
Values after ≈ are worked out from the molar mass of the structure shown. Where a name gives a salt, the structure may show the parent alone. Read-outs that look alike come from different tables or passages of the source. Values belong to the compound of their own block, whether it stands above or below them.

Experiments:
[1] = Drug absorption experiment in SD rats, intravenous administration; type: in vivo, SD rats (Sprague Dawley rats); conditions: for half-life / AUC(0-t) / Cmax: plasma
Experimental: The determination method for the absolute bioavailability of the intragastric administration of the crystal forms of the mesylate salt of the compound of formula (I) is as follows: • For intravenous administration: Healthy SD rats are randomly grouped. The tested substance is administered in a certain dosage D through the intravenous administration. The blood samples are collected through the retrobulbar venous plexus before the administration and 5 min, 15 min, 0.5 h, 1.0 h, 2.0 h, 4.0 h, 8.0 h, 12 h and 24 h after the administration, and separated to give plasmas. The concentration of the drug in plasma is determined with the liquid chromatography-tandem mass spectrometry method to give a drug concentration-time curve. • For intragastric administration: Healthy SD rats are randomly grouped. The tested substance is administered in a certain dosage D through the intragastric administration. The intravenous blood samples are collected through the rat's retrobulbar venous plexus before the administration and 0.5, 1.0, 2.0, 4.0, 6.0, 8.0, 10, 12 and 24 h after the administration, and separated to give plasmas. The concentration of the drug in plasma is determined with the liquid chromatography-tandem mass spectrometry method to give a drug concentration-time curve.
For intravenous administration: 20 healthy (half male and half female) SD rats with 200-280 g body weight, provided by Shanghai Sippr-BK laboratory animal Co. Ltd., were assigned randomly to 5 groups. […] 0.2 ml of the intravenous blood samples were collected through the rat's retrobulbar venous plexus before the administration and 5 min, 15 min, 0.5 h, 1.0 h, 2.0 h, 4.0 h, 8.0 h, 12 h and 24 h after the administration, and separated to give plasmas.
The concentration of the drug in plasma was determined with the liquid chromatography-tandem mass spectrometry method to give a drug concentration-time curve.
T1/2: elimination half-life; Cmax: maximum drug concentration in plasma; AUC0-t: area under drug concentration-time curve.

[2] = Drug absorption experiment in SD rats, intragastric administration (incl. absolute bioavailability); type: in vivo, SD rats (Sprague Dawley rats); conditions: for bioavailability / F (absolute bioavailability): from AUC0-t after dosage calibration; for bioavailability: read-out: F (absolute bioavailability); for F (absolute bioavailability): intragastric 10 mg/kg vs intravenous 2.5 mg/kg
Experimental: The determination method for the absolute bioavailability of the intragastric administration of the crystal forms of the mesylate salt of the compound of formula (I) is as follows: • For intravenous administration: Healthy SD rats are randomly grouped. The tested substance is administered in a certain dosage D through the intravenous administration. The blood samples are collected through the retrobulbar venous plexus before the administration and 5 min, 15 min, 0.5 h, 1.0 h, 2.0 h, 4.0 h, 8.0 h, 12 h and 24 h after the administration, and separated to give plasmas. […] The tested substance is administered in a certain dosage D through the intragastric administration.
After dosage calibration, the absolute bioavailability F is calculated by the area under the drug concentration-time curve (AUC0-t). The calculation equation is as follows: F=(AUCintragastric×Dintravenous)/(AUCintravenous×Dintragastric)×100%.
For intragastric administration: 20 healthy (half male and half female) SD rats with 200-280 g body weight, provided by Shanghai Sippr-BK laboratory animal Co. Ltd., were assigned randomly to 5 groups.
After dosage calibration, the absolute bioavailability F was obtained by calculation of AUC0-t. The calculation equation was as follows: F=(AUCintragastric×Dintravenous)/(AUCintravenous×Dintragastric)×100%. The obtained absolute bioavailability F data are shown in the above table 2.

[3] = Solubility test under different pH buffering solutions; type: physicochemical; conditions: for Solubility: 24 h; for solubilities compared with the compound of formula (I) of Example 1: solvent pH values 1.0, 4.5 and 6.8, conclusion in words
Experimental: The solubilities of the crystal forms of the mesylate salt of the compound of formula (I) may be measured according to the following method: • Each substance is weighed in an appropriate amount and placed in a brown flask. Different solvents are added. The mixtures are ultrasonically treated for 20 seconds. After the mixtures are uniformly dispersed, the mixtures are shaked at 25° C., 200 rpm for 24 h, then removed, and separated by centrifugation at 12000 rpm for 10 mins. The supernatants are removed by suction and diluted to a certain fold with the corresponding solvent. Then, the concentrations of the resulting solutions are determined by HPLC and their pH values are measured.
The compound of formula (I) of Example 1, Form I of the mesylate salt of the compound of formula (I), and Form II of the mesylate salt of the compound of formula (I) were investigated for the solubilities under different pH buffering solutions.
Test method: Each substance was weighed in an appropriate amount and placed in a brown flask. Different solvents were added. The mixtures were ultrasonically treated for 20 seconds. After the mixtures were uniformly dispersed, the mixtures were shaked at 25° C., 200 rpm for 24 h, then removed, and separated by centrifugation at 12000 rpm for 10 mins. The supernatants were removed by suction and diluted to a certain folds with the corresponding solvent. Then, the concentrations of the resulting solutions were determined by HPLC and their pH values were measured.

[4] = Acetate buffering solution at pH = 4.5, 25° C.
[5] = Phosphate buffering solution at pH = 6.8, 25° C.
[6] = intragastric, dosage 10 mg/kg, plasma

half-life ([1]; both sexes, Sprague-Dawley, rat, iv, 3 mg/kg, dosage 3.0 mg/kg, elimination half-life): 2.72 h | AUC(0-t) ([1]; both sexes, Sprague-Dawley, rat, iv, 3 mg/kg, dosage 3.0 mg/kg, read-out: AUC0-t): 0.438 µg·h/mL | Cmax ([1]; both sexes, Sprague-Dawley, rat, iv, 3 mg/kg, dosage 3.0 mg/kg, read-out: Cmax): 0.328 µg/mL | bioavailability ([2]; both sexes, Sprague-Dawley, rat, plasma, po, 6 mg/kg, intragastric 6 mg/kg vs intravenous 3.0 mg/kg): 8.9%
SMILES: C=CC(=O)Nc1cc(Nc2nccc(-c3cn(C)c4ccccc34)n2)c(OC(C)C)nc1N(C)CCN(C)C [Comparative Example 1, reference compound]

half-life ([1]; both sexes, Sprague-Dawley, rat, iv, 4 mg/kg, dosage 4.0 mg/kg, elimination half-life): 1.71 h | AUC(0-t) ([1]; both sexes, Sprague-Dawley, rat, iv, 4 mg/kg, dosage 4.0 mg/kg, read-out: AUC0-t): 0.811 µg·h/mL | Cmax ([1]; both sexes, Sprague-Dawley, rat, iv, 4 mg/kg, dosage 4.0 mg/kg, read-out: Cmax): 0.63 µg/mL | bioavailability ([2]; both sexes, Sprague-Dawley, rat, plasma, po, 10 mg/kg, intragastric 10 mg/kg vs intravenous 4.0 mg/kg): 8.5%
SMILES: C=CC(=O)Nc1cc(Nc2ncc(Cl)c(-c3cn(C)c4ccccc34)n2)c(OC(C)C)nc1N(C)CCN(C)C [Comparative Example 2, reference compound]

Solubility ([3]; 0.1N HCl, 25° C.): >30 mg/mL | Solubility [3, 4]: 0.62 mg/mL (≈ 1090 µM) | Solubility [3, 5]: 0.0003 mg/mL (≈ 0.528 µM)
SMILES: C=CC(=O)Nc1cc(Nc2nccc(-c3cn(C)c4ccccc34)n2)c(OCC(F)(F)F)nc1N(C)CCN(C)C [Example 1, N-{2-{[2-(dimethylamino)ethyl](methyl)amino}-6-(2,2,2-trifluoroethoxy)-5-{[4-(1-methyl-1H-indol-3-yl)pyrimidin-2-yl]amino}pyridin-3-yl}acrylamide]

half-life ([1]; both sexes, Sprague-Dawley, rat, iv, 2.5 mg/kg, dosage 2.5 mg/kg, elimination half-life): 4.73 h | AUC(0-t) ([1]; both sexes, Sprague-Dawley, rat, iv, 2.5 mg/kg, dosage 2.5 mg/kg, read-out: AUC0-t): 0.308 µg·h/mL | Cmax ([1]; both sexes, Sprague-Dawley, rat, iv, 2.5 mg/kg, dosage 2.5 mg/kg, read-out: Cmax): 0.105 µg/mL | half-life ([2]; both sexes, Sprague-Dawley, rat, plasma, po, 10 mg/kg, intragastric, dosage 10 mg/kg, elimination half-life): 7.98 h | AUC(0-t) ([2]; both sexes, Sprague-Dawley, rat, plasma, po, 10 mg/kg, intragastric, dosage 10 mg/kg, plasma, read-out: AUC0-t): 0.613 µg·h/mL | Cmax ([2]; both sexes, Sprague-Dawley, rat, plasma, po, 10 mg/kg, intragastric, dosage 10 mg/kg, plasma, read-out: Cmax): 0.0453 µg/mL | F (absolute bioavailability) [2]: 49.8% | Solubility ([3]; 0.1N HCl, 25° C.): >100 mg/mL | Solubility [3, 4]: 29.05 mg/mL | Solubility [3, 5]: 0.02 mg/mL | solubilities compared with the compound of formula (I) of Example 1 [3]: remarkably better
SMILES: C=CC(=O)Nc1cc(Nc2nccc(-c3cn(C)c4ccccc34)n2)c(OCC(F)(F)F)nc1N(C)CCN(C)C [Form I, Form I of the Mesylate Salt of N-{2-{[2-(dimethylamino)ethyl](methyl)amino}-6-(2,2,2-trifluoroethoxy)-5-{[4-(1-methyl-1H-indol-3-yl)pyrimidin-2-yl]amino}pyridin-3-yl}acrylamide]

T1/2 ([1]; dosage 2.5 mg/kg, elimination half-life): 4.83 h | AUC(0-t) ([1]; dosage 2.5 mg/kg): 0.362 µg·h/mL | Cmax ([1]; dosage 2.5 mg/kg): 0.1254 µg/mL | F (absolute bioavailability) [2]: 39.1% | AUC(0-t) [2, 6]: 0.5663 µg·h/mL | Cmax [2, 6]: 0.0367 µg/mL | Solubility ([3]; 0.1N HCl, 25° C.): >100 mg/mL | Solubility [3, 4]: 61.14 mg/mL | Solubility [3, 5]: 0.02 mg/mL | solubilities compared with the compound of formula (I) of Example 1 [3]: remarkably better
SMILES: C=CC(=O)Nc1cc(Nc2nccc(-c3cn(C)c4ccccc34)n2)c(OCC(F)(F)F)nc1N(C)CCN(C)C [Form II, Form II of the Mesylate Salt of N-{2-{[2-(dimethylamino)ethyl](methyl)amino}-6-(2,2,2-trifluoroethoxy)-5-{[4-(1-methyl-1H-indol-3-yl)pyrimidin-2-yl]amino}pyridin-3-yl}acrylamide]
